Type in all cases: biochemical
Assay [1] concerns the target MMP-9. The assay is described as follows: MMP-9 inhibition assay (fluorimetric, DQ gelatin substrate). Particulars: recombinant MMP-9 (Merck-Millipore for examples 1 to 9 and comparative examples; Enzo for examples 10 to 16), DQ gelatin 50 μg/mL, 4 hours at room temperature, pH 7.6. As to the method: (§1) All the experiments were done in 1× reaction buffer, which was obtained from a 10× reaction buffer solution. The content of the 10× reaction buffer was: 50 mL of 0.5 M Tris-HCl, 1.5 M NaCl, 50 mM CaCl2 and 2 mM sodium azide at pH 7.6. To obtain the 1× reaction buffer 4 mL of the 10× reaction buffer were diluted in 36 mL of H2O.
(§2) Recombinant MMP-9 expressed was obtained from Merck-Millipore (catalog number PF140-5UG, used in examples 1 to 9 and comparative examples) and Enzo (catalog number-SE360-0010, used in examples 10 to 16). DQ gelatin from pig skin fluorescein conjugated (MMP-9 substrate) was obtained from Life Technologies (catalog number E12055).
(§3) Preparation of the MMP-9 for the activity assay: MMP-9 was provided as a stock solution (0.1 mg/mL). The enzyme was diluted in 1× reaction buffer to a final concentration of 5 μg/mL.
(§4) Preparation of the DQ gelatin (substrate) solution for the activity assay: the solid form of the substrate was dissolved in water in order to obtain a stock solution of 1 mg/mL.
(§5) Procedure: The enzymatic assays were performed in 96-well microtiter plate, which allowed simultaneous monitoring of multiple reactions. For each reaction, 84.6 μL of 1× reaction buffer (pH 7.6), […] of MMP-9 (final concentration 85 ng/mL) and 2 μL of the corresponding new compound were added to each well. A stock solution of new compound was prepared in DMSO (100 mM), and dilutions were prepared from this stock solution with DMSO. Finally, to the mixture contained in each well 10 μL of the substrate were added (final concentration 50 μg/mL). The reaction was incubated for 4 hours at room temperature in an orbital shaker (100 rpm).
(§6) The inhibitory activity of the new compound was measured fluorimetrically. The excitation and emission wavelengths were 483 and 525 nm, respectively.
(§7) Inhibitory activity at several concentration points (ranging from 100 pM to 200 μM MMP) were measured for each compound. The inhibitory activity on MMP-2 and MMP-9 was calculated according to eq 1. For each new compound, the fluorescence in the presence (a) and in the absence (b) of the corresponding MMP was measured. The maximum fluorescence (0% inhibitory activity) was obtained from a sample of the corresponding MMP in the absence of inhibitory compounds. To estimate the inhibitory potency of the novel compounds, activities were plotted against the log concentration of the compound, adjusting to a sigmoid curve using GraphPad Prism software, and the IC50 value, defined as the concentration of compound required to inhibit 50% of the corresponding MMP activity, was determined from resulting curve.
(§8) a corresponds to fluorescence intensity in the presence of substrate+test compound+MMP
(§9) b corresponds to the fluorescence intensity in the presence of substrate+tested compound
(§10) c corresponds to the fluorescence intensity in the presence of substrate+MMP
(§11) d corresponds to the fluorescence intensity of the presence of substrate

The target in assay [2] is MMP-7 (Homo sapiens (Human), UniProt P09237). Description: MMP-7 inhibition assay (fluorogenic peptide substrate). The following applies: recombinant MMP-7 8.3 nM, Mca-PLGL-Dpa-AR-NH2 10 μM, 4 hours at room temperature; tested at 1, 10, 100 and 200 μM. As to the method:
as §1
Recombinant MMP-7 expressed in E. Coli was obtained from Merck-Millipore (catalog number 44270). Mca-PLGL-Dpa-AR-NH2 (fluorogenic peptide substrate) was obtained from R&D Systems (catalog number ES001).
Preparation of the MMP-7 for the activity assay: MMP-7 was provided as a stock solution (2.1 mg/mL). The enzyme was diluted in water to a final concentration of 0.005 mg/mL.
MMP-7 peptide substrate was provided as a solid (1 mg). A 4 mM stock solution of the substrate in DMSO was obtained by adding 214.7 μL of DMSO. After which, a 100 μM solution of substrate was prepared in 1× reaction buffer.
as §5, with “of MMP-7” for “of MMP-9”, “concentration 8.3 nM)” for “concentration 85 ng/mL)”, “concentration 10 μM).” for “concentration 50 μg/mL).”, “shaker (90” for “shaker (100”
(§12) The inhibitory activity of the new compound was measured fluorimetrically. The excitation and emission wavelengths were 320 and 405 nm, respectively.
(§13) Inhibitory activity at several concentration points (1, 10, 100 and 200 μM) were measured for each compound. The inhibitory activity on MMP-1, MMP-3 and MMP-7 was calculated according to eq 1 and The IC50 value was calculated as explained above for MMP-2 and MMP-9.

Assay [3] concerns the target MMP-1 (Homo sapiens (Human), UniProt P03956). Description: MMP-1 inhibition assay (fluorogenic peptide substrate). Particulars: recombinant MMP-1 5.52 nM, Mca-PLGL-Dpa-AR-NH2 10 μM, 4 hours at room temperature; tested at 1, 10, 100 and 200 μM. As to the method:
as §1
Recombinant MMP-1 expressed in E. Coli was obtained from Enzo Life Sciences (catalog number BML-SE180). Mca-PLGL-Dpa-AR-NH2 (fluorogenic peptide substrate) was obtained from R&D Systems (catalog number ES001).
Preparation of the MMP-1 for the activity assay: MMP-1 was provided as a stock solution (0.55 mg/mL). The enzyme was diluted in 1× reaction buffer to a final concentration of 276 nM.
MMP-1 peptide substrate was provided as a stock solution in DMSO (6 mM). For the assay, the substrate was diluted 1× reaction buffer to a concentration of 100 μM.
Procedure: The enzymatic assays were performed in 96-well microtiter plate, which allowed simultaneous monitoring of multiple reactions. For each reaction, 86 μL of 1× reaction buffer (pH 7.6), 2 μL of MMP-1 (final concentration 5.52 nM) and 2 μL of the corresponding new compound were added to each well. A stock solution of the new compound was prepared in DMSO (100 mM), and dilutions were prepared from this stock solution with DMSO. Finally, to the mixture contained in each well 10 μL of the substrate were added (final concentration 10 μM). The reaction was incubated for 4 hours at room temperature in an orbital shaker (100 rpm).
as §12, §13

Assay [4] addresses MMP-9 (Homo sapiens, UniProt P14780). The assay is described as follows: MMP-9 inhibition assay (fluorimetric, DQ gelatin substrate). The following applies: recombinant MMP-9 (Merck-Millipore for examples 1 to 9 and comparative examples; Enzo for examples 10 to 16), DQ gelatin 50 μg/mL, 4 hours at room temperature, pH 7.6. As to the method:
as §1, §2, §3, §4, §5, §6, §7, §8, §9, §10, §11

We go through ten compounds from US10414797B2, “Gelatinase inhibitors and use thereof” (Iproteos S.L, priority 2015, dated 2019).

Where a SMILES comes first, the peptide text is derived from it. [ ]: non-standard residue; d: D form. The star is where a group is joined. ξ: configuration not given here. NMeW = CN[C@@H](Cc1c[nH]c2ccccc12)C(=O)O; Benzoyl(3,5-F2) = O=C(c1cc(F)cc(F)c1)*; NMeIle(3ξ) = CCC(C)[C@H](NC)C(=O)O; NMeQ = CN[C@@H](CCC(N)=O)C(=O)O; NMeL = CN[C@@H](CC(C)C)C(=O)O; Dab = NCC[C@H](N)C(=O)O; Butyryl = CCCC(=O)*; NHOH = ON* A value given as a limit tells only on which side of the number the result lay.

As usually defined, the IC50 is the point on the concentration scale where inhibition reaches its midpoint.

Chain of MMP-1 (P03956 100-269): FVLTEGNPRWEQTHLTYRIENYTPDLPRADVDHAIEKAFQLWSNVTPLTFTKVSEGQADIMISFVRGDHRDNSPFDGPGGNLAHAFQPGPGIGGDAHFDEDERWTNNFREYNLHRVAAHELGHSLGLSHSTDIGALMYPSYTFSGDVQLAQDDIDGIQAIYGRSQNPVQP
Chain of MMP-9 (P14780 107-707 limits assumed): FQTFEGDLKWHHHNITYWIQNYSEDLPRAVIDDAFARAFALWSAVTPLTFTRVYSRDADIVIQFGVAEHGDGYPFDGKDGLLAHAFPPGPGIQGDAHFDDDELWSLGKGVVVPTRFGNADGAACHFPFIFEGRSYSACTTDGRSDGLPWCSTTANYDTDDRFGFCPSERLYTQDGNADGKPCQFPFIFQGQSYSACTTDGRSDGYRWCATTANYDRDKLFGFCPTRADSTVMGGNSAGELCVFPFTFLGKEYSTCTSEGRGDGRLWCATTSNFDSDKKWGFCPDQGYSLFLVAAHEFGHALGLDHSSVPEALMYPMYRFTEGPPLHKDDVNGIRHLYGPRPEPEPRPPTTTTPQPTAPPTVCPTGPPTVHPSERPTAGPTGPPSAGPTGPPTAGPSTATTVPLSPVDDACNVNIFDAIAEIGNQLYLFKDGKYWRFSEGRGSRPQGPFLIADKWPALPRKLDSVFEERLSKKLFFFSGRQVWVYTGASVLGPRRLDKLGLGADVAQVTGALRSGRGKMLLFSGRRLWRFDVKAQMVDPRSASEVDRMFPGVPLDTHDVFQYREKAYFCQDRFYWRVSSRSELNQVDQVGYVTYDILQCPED
Chain of MMP-7 (P09237 95-267): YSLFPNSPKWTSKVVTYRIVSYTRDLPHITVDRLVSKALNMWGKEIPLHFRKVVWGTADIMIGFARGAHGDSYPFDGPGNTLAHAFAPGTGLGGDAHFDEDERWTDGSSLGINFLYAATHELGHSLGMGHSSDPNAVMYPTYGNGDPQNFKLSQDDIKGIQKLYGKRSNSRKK
Chain of MMP-9 (Homo sapiens, UniProt P14780) (P14780 107-707 limits assumed): as the sequence (P14780 107-707 limits assumed) above

For `CCC(C)[C@@H](C(=O)N[C@@H](CCNC(=O)c1cc(F)cc(F)c1)C(=O)NO)N(C)C(=O)[C@@H]1CC(F)(F)CN1C(=O)CCCOc1ccccc1` (stereo partly drawn) [Example 10, (2S)—N-[(1S)-1-[[(1S)-3-[(3,5-difluorobenzoyl)amino]-1-(hydroxycarbamoyl)propyl]carbamoyl]-2-methyl-butyl]-4,4-difluoro-N-methyl-1-(4-phenoxybutanoyl)pyrrolidine-2-carboxamide], the figures for the IC50 in assay [1], in assay [2] and in assay [3] were 0.223 µM, 8.08 µM and 6.61 µM, respectively.
`CCCCCC(=O)N1CCC[C@H]1C(=O)N(C)[C@H](C(=O)N[C@@H](CCNC(=O)c1cc(F)cc(F)c1)C(=O)NO)C(C)CC` (stereo partly drawn) [Example 3, (2S)—N-[(1S)-1-[[(1S)-3-[(3,5-difluorobenzoyl)amino]-1-(hydroxycarbamoyl)propyl]carbamoyl]-2-methyl-butyl]-1-hexanoyl-N-methyl-pyrrolidine-2-carboxamide]: the IC50 in assay [4] was 0.395 µM; in assay [2], 6.61 µM; in assay [3] it was 6.82 µM.
For `CCC(C)[C@@H](C(=O)N[C@@H](CCNC(=O)c1cc(F)cc(F)c1)C(=O)NO)N(C)C(=O)[C@@H]1CCCN1C(=O)CCCOc1ccccc1` (stereo partly drawn) [Example 9, (2S)—N-[(1S)-1-[[(1S)-3-[(3,5-difluorobenzoyl)amino]-1-(hydroxycarbamoyl)propyl]carbamoyl]-2-methyl-butyl]-N-methyl-1-(4-phenoxybutanoyl)pyrrolidine-2-carboxamide], the results for the IC50 in assay [1], in assay [2] and in assay [3] were 0.506 µM, 40.3 µM and 11.4 µM, respectively.
On the same counts, the results for `CCC(C)[C@@H](C(=O)N[C@@H](CCNC(=O)c1cc(F)cc(F)c1)C(=O)NO)N(C)C(=O)[C@@H]1CCCN1C(C)=O` (stereo partly drawn) [Example 2, (2S)-1-acetyl-N-[(1S)-1-[[(1S)-3-[(3,5-difluorobenzoyl)amino]-1-(hydroxycarbamoyl)propyl]carbamoyl]-2-methyl-butyl]-N-methyl-pyrrolidine-2-carboxamide] are 0.301 µM, 31.4 µM and 4.94 µM.
For `CCCC(=O)N(C)[C@@H](Cc1c[nH]c2ccccc12)C(=O)N(C)[C@@H](CC(C)C)C(=O)N1CCC[C@H]1C(=O)N(C)[C@H](C(=O)N[C@@H](CCNC(=O)c1cc(F)cc(F)c1)C(=O)NO)C(C)CC` (stereo partly drawn) [Example 14, (2S)-1-[(2S)-2-[[(2S)-2-[butanoyl(methyl)amino]-3-(1H-indol-3-yl)propanoyl]-methyl-amino]-4-methyl-pentanoyl]-N-[(1S)-1-[[(1S)-3-[(3,5-difluorobenzoyl)amino]-1-(hydroxycarbamoyl)propyl]carbamoyl]-2-methyl-butyl]-N-methyl-pyrrolidine-2-carboxamide] (Butyryl-[NMeW][NMeL]P[NMeIle(3ξ)][Dab](Benzoyl(3,5-F2))-{NHOH}), in that order: 0.046 µM, 61 µM and 6.07 µM.
Regarding `CCC(C)[C@@H](C(=O)N[C@@H](CCNC(=O)c1cc(F)cc(F)c1)C(=O)NO)N(C)C(=O)[C@@H]1CCCN1C(=O)CCN(C)C(C)=O` (stereo partly drawn) [Example 13, (2S)-1-[3-[acetyl(methyl)amino]propanoyl]-N-[(1S)-1-[[(1S)-3-[(3,5-difluorobenzoyl)amino]-1-(hydroxycarbamoyl)propyl]carbamoyl]-2-methyl-butyl]-N-methyl-pyrrolidine-2-carboxamide], the IC50 in assay [1] was found to be 0.339 µM; in assay [2], 50.4 µM; in assay [3], 200 µM.
On the same counts, the results for `CC(=O)N1CCC[C@H]1C(=O)N(C)[C@@H](CCC(N)=O)C(=O)N[C@@H](Cc1c[nH]c2ccccc12)C(=O)NO` [Example C20, (2S)-2-[[(2S)-1-acetylpyrrolidine-2-carbonyl]-methyl-amino]-N-[(1S)-2-(hydroxyamino)-1-(1H-indol-3-ylmethyl)-2-oxo-ethyl]pentanediamide, reference compound] (Ac-Pro-[NMeQ]-Trp-{NHOH}) are 22 µM, over 2000 µM and over 2000 µM.
Consider `CCC(C)[C@@H](C(=O)N[C@@H](CCNC(=O)c1ccc(F)cc1)C(=O)NO)N(C)C(=O)[C@@H]1CCCN1C(C)=O` (stereo partly drawn) [Example 1, (2S)-1-acetyl-N-[(1S)-1-[[(1S)-3-[(4-fluorobenzoyl)amino]-1-(hydroxycarbamoyl)propyl]carbamoyl]-2-methyl-butyl]-N-methyl-pyrrolidine-2-carboxamide], for which the IC50 in assay [1] was found to be 1.26 µM; in assay [2], 23 µM. For the same compound, the “MMP-1 IC50” value in assay [3] is under 1 µM.
For the compound `CC(=O)N1CCC[C@H]1C(=O)N[C@@H](CCC(N)=O)C(=O)N[C@@H](Cc1c[nH]c2ccccc12)C(=O)NO` [Example C17, (2S)-2-[[(2S)-1-acetylpyrrolidine-2-carbonyl)amino]-N-[(1S)-2-(hydroxyamino)-1-(1H-indol-3-ylmethyl)-2-oxo-ethyl]pentanediamide, reference compound] (Ac-Pro-Gln-Trp-{NHOH}), the half-maximal inhibitory concentration (IC50) in assay [1] was 3500 µM; in assay [2], over 2000 µM; in assay [3], 6.1 µM.
On to `CCC(C)[C@@H](C(=O)N[C@@H](CCNC(=O)c1cc(F)cc(F)c1)C(=O)NO)N(C)C(=O)[C@@H]1CCCN1C(=O)CC(C)C` (stereo partly drawn) [Example 5, (2S)—N-[(1S)-1-[[(1S)-3-[(3,5-difluorobenzoyl)amino]-1-(hydroxycarbamoyl)propyl]carbamoyl]-2-methyl-butyl]-N-methyl-1-(3-methylbutanoyl)pyrrolidine-2-carboxamide], for which the IC50 in assay [1] worked out at 0.601 µM; in assay [2], 3.48 µM; in assay [3] it was 6.68 µM.
